Data set [1] relates to H1299 cells. The experiment in a line: Western blot of K40-acetylated α-tubulin levels in H1299 cells. It is filed as cell-based, human. Background: Immunoblotting shows a protein as a band on a membrane.
Data set [2] deals with MCF-7 breast adenocarcinoma cells. The experiment in a line: Western blot of p53 and K382-acetylated p53 levels in MCF-7 cells. Type of data set: cell-based, human.
Data set [3] addresses T1, human recombinant SIRT1 (Homo sapiens, UniProt Q96EB6).
T1 sequence (Q96EB6 1-747): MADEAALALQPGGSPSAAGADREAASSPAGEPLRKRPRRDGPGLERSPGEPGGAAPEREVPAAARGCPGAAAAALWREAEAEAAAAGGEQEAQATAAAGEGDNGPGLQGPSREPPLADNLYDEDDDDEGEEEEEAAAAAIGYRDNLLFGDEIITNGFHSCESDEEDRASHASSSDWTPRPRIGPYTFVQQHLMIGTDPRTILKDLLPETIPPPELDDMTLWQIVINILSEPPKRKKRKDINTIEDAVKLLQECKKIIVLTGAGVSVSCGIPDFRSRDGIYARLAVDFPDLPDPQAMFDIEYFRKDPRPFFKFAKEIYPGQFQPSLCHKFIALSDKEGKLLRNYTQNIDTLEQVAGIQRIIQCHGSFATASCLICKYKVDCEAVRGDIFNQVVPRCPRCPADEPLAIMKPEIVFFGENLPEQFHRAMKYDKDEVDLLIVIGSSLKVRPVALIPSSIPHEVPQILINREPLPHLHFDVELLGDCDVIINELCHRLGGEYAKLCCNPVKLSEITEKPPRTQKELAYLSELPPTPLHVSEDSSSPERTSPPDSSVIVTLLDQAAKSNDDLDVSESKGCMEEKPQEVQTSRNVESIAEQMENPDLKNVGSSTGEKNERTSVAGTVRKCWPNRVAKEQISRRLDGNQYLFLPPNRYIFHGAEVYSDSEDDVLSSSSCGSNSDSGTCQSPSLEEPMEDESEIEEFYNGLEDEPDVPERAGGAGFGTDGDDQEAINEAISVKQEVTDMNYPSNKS
The experiment in a line: SIRT1 inhibition, Fluor de Lys fluorescence-based assay. It is filed as biochemical. The settings on record: ratio of IC50 values versus 1.

Data set [4] deals with SIRT1. To be noted: read-out: SIRT1 IC50 (previously reported); in vitro; cited from earlier work.
Data set [5] concerns NCI H460 cancer cells. To be noted: in the presence of etoposide (10 μM); cited from earlier work.
Data set [6] has as its system SIRT2. To be noted: read-out: SIRT2 IC50 (previously reported); in vitro; cited from earlier work.

Each structure is given as a SMILES string.

Turning to `O=c1[nH]c(=S)[nH]c(-c2ccc(Br)cc2)c1Cc1c(O)ccc2ccccc12` [6b, 6-(4′-Bromophenyl)-5-[2″-hydroxynaphthyl-(1″)-methyl]-2-thioxo-2,3-dihydro-1H-pyrimidin-4-one], the “levels of acetylated α-tubulin” value in data set [1] (Figure S13, cell line not given) was “did not lead to an increase in the levels of acetylated α-tubulin”. Further, in data set [2] (MCF-7, compound alone, in the absence of etoposide, different concentrations), the “levels of p53” value is reported as “did not increase the levels of p53”. Besides, in data set [3], the “improvement in activity (IC50) against SIRT1 compared to 1” value was determined as 3 fold.

Regarding `CCCCn1c(-c2ccccc2)c(Cc2c(O)ccc3ccccc23)c(=O)[nH]c1=S` [6j, 6-Phenyl-5-[2″-hydroxynaphthalyl-(1″)-methyl]-1-butyl-2-thioxo-2,3-dihydro-1H-pyrimidin-4-one], the “levels of acetylated α-tubulin compared to the effect of 1” value in data set [1] (H1299 cells, with trichostatin A, concentration range 10–50 μM) was “an increase in the levels of acetylated α-tubulin was achieved”. Further, the toxicity in cells entry in data set [1] (concentrations higher than 10–50 μM) was “toxicity”.

For orientation: IC50 means the concentration that gives 50% inhibition. Turning to `O=c1[nH]c(=S)[nH]c(-c2ccccc2)c1Cc1c(O)ccc2ccccc12` [compound 1, 6-Phenyl-5-[2″-hydroxynaphthyl-(1″)-methyl]-2-thioxo-2,3-dihydro-1H-pyrimidin-4-one], the “levels of acetylated α-tubulin” value in data set [1] (H1299 cells, with 40 nM trichostatin A, 24 h) was “did lead to an increase in levels of acetylated tubulin”. The “levels of p53 and acetylated p53” value in data set [2] (MCF-7, in the presence of etoposide (10 μM), 200 μM compound) is “decreased again”; in data set [5], “increased levels of p53 and acetylated p53”. Moreover, the “levels of p53 and Lys382 acetylated p53” value in data set [2] (MCF-7, in the presence of etoposide (10 μM), 20 and 50 μM compound, 6 h) was “increased”. Further, the IC50 in data set [4] is 56 µM; in data set [6], 59 µM.

Values taken from paper PMC2691587 (Journal of medicinal chemistry, 2009).
